# Measured values: US4656190A, “Indene derivatives and their use as PAF-antagonists” (Merck & Co., Inc., priority 1983, dated 1987)
# Several values for one entry are separate records, joined by “and”; a condition that tells them apart may be missing. Equal entries are not always repeated. Where two headings read alike, the source gives them in different places.
# Experiments:
# [1] = biological target: T1, PAF specific receptor binding site on rabbit platelet plasma membranes (Oryctolagus cuniculus, UniProt G1TEI7); test: Inhibition of 3H-PAF binding to rabbit platelet plasma membranes
# T1 construct: from tissue; host or cells: rabbit platelets (plasma membrane suspension)
# T1 sequence (G1TEI7 1-342): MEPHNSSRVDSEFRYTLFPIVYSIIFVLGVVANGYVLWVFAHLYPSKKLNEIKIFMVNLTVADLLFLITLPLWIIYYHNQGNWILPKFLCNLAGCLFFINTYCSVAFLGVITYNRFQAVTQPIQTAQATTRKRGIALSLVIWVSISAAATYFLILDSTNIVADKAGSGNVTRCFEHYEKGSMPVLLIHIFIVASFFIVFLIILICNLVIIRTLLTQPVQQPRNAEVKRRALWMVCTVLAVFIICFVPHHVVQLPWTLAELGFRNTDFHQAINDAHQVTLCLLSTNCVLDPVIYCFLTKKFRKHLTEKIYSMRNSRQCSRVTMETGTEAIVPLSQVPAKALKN
# Protocol: In vitro, they inhibit PAF-induced functions in both the cellular and tissue levels by disturbing the PAF binding to its specific receptor site. The ability of a compound of formula (I) to inhibit the PAF binding to its specific receptor binding site on rabbit platelet plasma membranes was measured by an assay recently developed by us.
# The inhibition of H^3 -PAF binding to the rabbit platelet plasma membrane by a PAF-antagonist of Formula (I) was determined by a method employing isotropic labeling and filtration techniques. Generally, a series of Tris-buffered solutions of the selected antagonist at predetermined concentrations were prepared. Each of these solutions contains 1 pmole of ^3 H-PAF, a known amount of the test antagonist, and a sufficient amount of the pH 7.5 Tris-buffer solution (10 mM Tris, 0.25% bovine serum albumin, and 150 mM NaCl per ml water) to make the final volume of 1 ml. After adding into a set of test tubes each with 100 μg of the platelet plasma membrane suspension (S. B. Hwang, et al., Biochemistry, 22, 4756 (1983)) and one of the Tris-buffer solutions described above, the resulting mixture in each test tube was incubated at 0° C. for about one hour or until the reaction was complete. Two control samples, one of which (C1) contains all the ingredients described above except the antagonist and the other (C2) contains C1 plus a 1000-fold excess of unlabeled PAF, were also prepared and incubated simultaneously with the test samples. After the incubation was completed, the contents of each test tube were filtered under vacuo through a Whatman GF/C fiberglass filter and the residue washed rapidly several times with a total of 20 ml cold (0°-5° C.) Tris-buffer solution. Each washed residue was then suspended in 10 ml scintillation solution (Aquasol 2, New England Nuclear, Connecticut) and the radioactivity was counted in a Packard Tri-Carb 460CD Liquid Scintillation System. Defining the counts from a test sample as "Total binding with antagonist"; the counts from the control sample C1, as "Total binding C1 "; and the counts from the control sample C2 as "non-specific binding C2 ", the percent inhibition of each test antagonist can be determined by the following equation: [formula]
# [2] = test system: PAF-induced cutaneous vascular permeability; test: In vivo assay: inhibition of PAF-induced increase of cutaneous vasopermeability in guinea pigs after oral dosing; details: guinea pig
# Protocol: The specific PAF-antagonistic activities are further established by in vivo assays following the protocol (modified procedure of Humphrey et al., Lab. Investigation, 46, 422 (1982)) described below:
# Protocol for the Evaluation of the Oral Activity of
# PAF Antagonists or the Inhibition of PAF-Induced
# Increase of Vasopermeability by PAF-Antagonists
# I. Animal species: 5 guinea pigs (400-500 g)
# (4.) Ground and suspend a PAF antagonist of formula
# (I) with intensive sonication in 3 ml of 0.5%
# aqueous methylcellulose solution.
# (5.) Administer orally to each of the animals T1,
# T2, T3 and T4 an appropriate amount (in
# terms of mg/kg of bodyweight) of the antagonist
# solution from 4), except the control animal
# (6.) Forty minutes after the oral administration,
# (7.) After 20 minutes or when the anesthetics became
# effective, inject intracardially to each animal
# and inject intracutaneously, in duplicate 0.1
# ml of a PAF solution in Tris-buffer or 0.1 ml
# of the Tris-buffer itself (control) according
# (9.) Wait for 30 minutes or until the blue color
# (13.) In the meantime, extract a 100 μl sample of
# (15.) Measure the absorbance of each supernatant from
# Palo Alto, CA). Calculate the amount of Evans
# blue in each skin sample in terms of the volume
# (μl) of the exuded blood plasma according to
# the following equation: […]
# (16.) Draw a plasma exudation curve
# (17.) Calculate the percent inhibition of PAF-induced
# cutaneous vascular permeability from measuring
# the area under the plasma exudation curve of
# the control animal (AC) and that of an
# animal treated orally with an antagonist
# (AD), for example T1, according to the […]
# [3] = Table 1, E (trans), read-out: % Inhibition of PAF Binding
# [4] = Table 1, E (trans), dose 5 μM, read-out: % Inhibition of PAF Binding
# [5] = Table II, Z (cis), dose 5 μM, read-out: % Inhibition of PAF Receptor
# [6] = Table II, Z (cis), read-out: % Inhibition of PAF Receptor
smiles,measurement,setting,value
"COCCC1=C(C)/C(=C\c2ccc(S(N)(=O)=O)cc2)c2ccc(F)cc21 [E CH2CH2OCH3 / SO2NH2 / F, E 1-(4-aminosulfonylphenyl)methylene-5-fluoro-2-methyl-1H-3-indenyl-(2-methoxy)ethane]",inhibition at 5 µM,[1]; read-out: % Inhibition of PAF Binding,61%
"COc1ccc2c(c1)C(CCO)=C(C)/C2=C\c1ccc(S(N)(=O)=O)cc1 [E CH2CH2OH / SO2NH2 / OCH3, E 1-(4-aminosulfonyl)methylene-5-methoxy-2-methyl-1H-3-indenyl-(2-hydroxy)ethane]",inhibition at 1 µM,[1]; [3],59%
"COc1ccc2c(c1)C(CCSc1ccccc1)=C(C)/C2=C\c1ccc(S(N)(=O)=O)cc1 [E CH2CH2SC6H5 / SO2NH2 / OCH3, E 1-(4-aminosulfonylphenyl)methylene-5-methoxy-2-methyl-1H-3-indenyl-(2-phenylthio)ethane]",inhibition at 5 µM,[1]; [4],56%
"COc1ccc2c(c1)C(CC[S+](C)[O-])=C(C)/C2=C\c1ccc(S(N)(=O)=O)cc1 (stereo not drawn) [E CH2CH2SOCH3 / SO2NH2 / OCH3, E 1-(4-aminosulfonylphenyl)methylene-5-methoxy-2-methyl-1H-3-indenyl-(2-methylsulfinyl)ethane]",inhibition at 0.5 µM,[1]; [3],24%
same,inhibition at 5 µM,[1]; [4],74%
"COC(=O)CC1=C(C)/C(=C\c2ccc(OC)c(OC)c2)c2ccc(OC)cc21 [E CH2COOCH3 / 3,4-dimethoxy / OCH3, E methyl 1-(3,4-dimethoxyphenyl)methylene-5-methoxy-2-methyl-1H-3-indenylacetate]",inhibition at 1 µM,[1]; [3],45%
same,inhibition at 10 µM,[1]; [3],87%
"COC(=O)CC1=C(C)/C(=C\c2ccc(S(N)(=O)=O)cc2)c2ccc(F)cc21 [E CH2COOCH3 / SO2NH2 / F, E-Methyl 1-(4-aminosulfonylphenyl)methylene-5-fluoro-2-methyl-1H-3-indenylacetate]",inhibition at 1 µM,[1]; [3],60%
"CNS(=O)(=O)c1ccc(/C=C2\C(C)=C(CC(=O)OC)c3cc(F)ccc32)cc1 [E CH2COOCH3 / SO2NHCH3 / F, E Methyl 1-[4-(N-methylaminosulfonyl)phenyl]-methylene-5-fluoro-2-methyl-1H-3-indenylacetate]",inhibition at 1 µM,[1]; [3],56%
"CNS(=O)(=O)c1ccc(/C=C2\C(C)=C(CC(=O)OC)c3cc(OC)ccc32)cc1 [E CH2COOCH3 / SO2NHCH3 / OCH3, E Methyl 1-(4-(N-methylaminosulfonyl)phenyl)methylene-5-methoxy-2-methyl-1H-3-indenylacetate]",inhibition at 0.5 µM,[1]; [3],67%
same,inhibition at 5 µM,[1]; [4],100%
COC(=O)CC1=C(C)/C(=C\c2ccc([S+](C)[O-])cc2)c2ccc(F)cc21 (stereo not drawn) [E CH2COOCH3 / SOCH3 / F],inhibition at 5 µM,[1]; [4],45%
"COc1ccc2c(c1)C(CC(=O)O)=C(C)/C2=C\c1ccc(S(N)(=O)=O)cc1 [E CH2COOH / SO2NH2 / OCH3, 1-(4-aminosulfonylphenyl)methylene-5-methoxy-2-methyl-1H-3-indenyl acetic acid]",inhibition at 5 µM,[1]; [4],4%
COc1ccc2c(c1)C(CCn1ccnc1)=C(C)/C2=C\c1ccc(S(N)(=O)=O)cc1 [E drawing 16 / SO2NH2 / OCH3],inhibition at 0.1 µM,"[1]; Table 1, E (trans), dose 0.1 μM, read-out: % Inhibition of PAF Binding",17%
same,inhibition at 0.5 µM,[1]; [3],31%
same,inhibition at 1 µM,[1]; [3],45%
same,inhibition at 5 µM,[1]; [4],90%
COc1ccc2c(c1)C(CCn1ccnc1)=C(C)/C2=C\c1ccc(S(N)(=O)=O)cc1 [E drawing 22 / SO2NH2 / OCH3],% In Vivo Inhibition of PAF Receptor,[2]; 45 mg/kg,52%
same,% In Vivo Inhibition of PAF Receptor,[2]; 50 mg/kg,59%
CSc1ccc(/C=C2/C(C)=C(CCNC(C)=O)c3cc(F)ccc32)cc1 [Z CH2CH2NHCOCH3 / SCH3 / F],inhibition at 5 µM,[1]; [5],50%
"CC(=O)NCCC1=C(C)/C(=C/c2ccc(S(C)(=O)=O)cc2)c2ccc(F)cc21 [Z CH2CH2NHCOCH3 / SO2CH3 / F, Z 1-(4-methylsulfonylphenyl)methylene-5-fluoro-2-methyl-1H-3-indenyl-(2-acetamido)ethane]",% Inhibition of PAF Receptor,"[1]; Table II, Z (cis), dose 5 μM",68% and 90%
"CC(=O)NCCC1=C(C)/C(=C/c2ccc([S+](C)[O-])cc2)c2ccc(F)cc21 (stereo not drawn) [Z CH2CH2NHCOCH3 / SOCH3 / F, Z 1-(4-methylsulfinylphenyl)methylene-5-fluoro-2-methyl-1H-3-indenyl-(2-acetamido)ethane]",inhibition at 5 µM,[1]; [5],39%
"COCCC1=C(C)/C(=C/c2ccc(S(N)(=O)=O)cc2)c2ccc(F)cc21 [Z CH2CH2OCH3 / SO2NH2 / F, Z 1-(4-aminosulfonylphenyl)methylene-5-fluoro-2-methyl-1H-3-indenyl-(2-methoxy)ethane]",inhibition at 5 µM,[1]; read-out: % Inhibition of PAF Receptor,29%
"COc1ccc2c(c1)C(CCSc1ccccc1)=C(C)/C2=C/c1ccc(S(N)(=O)=O)cc1 [Z CH2CH2SC6H5 / SO2NH2 / OCH3, Z 1-(4-aminosulfonylphenyl)methylene-5-methoxy-2-methyl-1H-3-indenyl-(2-phenylthio)ethane]",inhibition at 5 µM,[1]; [5],33%
"COc1ccc2c(c1)C(CC[S+](C)[O-])=C(C)/C2=C/c1ccc(S(N)(=O)=O)cc1 (stereo not drawn) [Z CH2CH2SOCH3 / SO2NH2 / OCH3, Z 1-(4-aminosulfonylphenyl)methylene-5-methoxy-2-methyl-1H-3-indenyl-(2-methylsulfinyl)ethane]",inhibition at 5 µM,[1]; [5],56%
"COC(=O)CC1=C(C)/C(=C/c2ccc(NS(C)(=O)=O)cc2)c2ccc(OC)cc21 [Z CH2COOCH3 / NHSO2CH3 / OCH3, Z methyl 1-(4-(N-mesylaminophenyl))methylene-5-methoxy-2-methyl-1H-3-indenylacetate]",inhibition at 3 µM,"[1]; Table II, Z (cis)",35%
same,inhibition at 10 µM,[1]; [6],72%
"COC(=O)CC1=C(C)/C(=C/c2ccc(S(N)(=O)=O)cc2)c2ccc(OC)cc21 [Z CH2COOCH3 / SO2NH2 / OCH3, Z methyl 1-(4-aminosulfonylphenyl)methylene-5-methoxy-2-methyl-1H-3-indenylacetate]",inhibition at 1 µM,[1]; [6],39%
same,inhibition at 3 µM,"[1]; Table II, Z (cis)",58%
same,inhibition at 5 µM,[1]; [5],66%
same,inhibition at 10 µM,[1]; [6],75%
same,inhibition at 20 µM,"[1]; Table II, Z (cis)",100%
same,inhibition at 50 µM,"[1]; Table II, Z (cis)",100%
COC(=O)CC1=C(C)/C(=C/c2ccc(S(=O)(=O)NC(=N)N)cc2)c2ccc(OC)cc21 [Z CH2COOCH3 / SONHC(NH)NH2 / OCH3],inhibition at 1 µM,[1]; [6],50%
"COc1ccc2c(c1)C(CC(=O)O)=C(C)/C2=C/c1ccc(S(N)(=O)=O)cc1 [Z CH2COOH / SO2NH2 / OCH3, 1-(4-aminosulfonylphenyl)methylene-5-methoxy-2-methyl-1H-3-indenylacetic acid]",inhibition at 5 µM,[1]; [5],32%
same,inhibition at 20 µM,"[1]; Table II, Z (cis)",57%
same,inhibition at 50 µM,"[1]; Table II, Z (cis)",94%
CCOc1ccc2c(c1)C(CC(=O)O)=C(C)/C2=C/c1ccc([S+](C)[O-])cc1 (stereo not drawn) [Z CH2COOH / SOCH3 / OC2H5],inhibition at 5 µM,[1]; [5],42%
"COc1ccc2c(c1)C(CCn1ccnc1)=C(C)/C2=C/c1ccc(S(N)(=O)=O)cc1 [Z drawing 18 / SO2NH2 / OCH3, Z 1-(4-aminosulfonylphenyl)methylene-5-methoxy-2-methyl-1H-3-indenyl-[2-(N-imidazolyl)]ethane]",inhibition at 5 µM,[1]; [5],68%
